Laboratory results taken from paper PMC6136712, “Ex vivo drug sensitivity testing as a means for drug repurposing in esophageal adenocarcinoma” (PLoS ONE, 2018).
Structures can show the parent of a compound that is named as a salt. Where two headings read alike, the source gives them in different places.

Tested on: normal esophageal epithelium cell line EACN42
Experiment: FDA library drug sensitivity testing (CellTiter-Glo, 72 h), normal control cells
Type: cell-based, human
Design: key to DSS: modified drug sensitivity score (DSSmod) from dose-response curve fit
Details: for EC50: cell viability (ATP), max test concentration 10μM
Procedure: The normal esophageal epithelium cell line EACN42 was established in the Capobianco laboratory. The cell lines was derived from human normal epithelium and immortalized using HPV E6-E7.
Drug sensitivity testing (DST) was performed as described previously. […] Individual drugs were dissolved in 100% DMSO and tested in duplicates starting at a maximal test concentration of 10μM then over a 20,000-fold concentration range to generate dose response curves. Wells with assay buffer containing DMSO served as negative controls. 1000 exponentially growing cells were seeded per well in 384-well micro-titer plates and incubated in the presence of compounds in a humidified environment at 37°C and 5% CO2. After 72 hours of treatment, cell viability was assessed by measuring ATP levels via bioluminescence (CellTiter-Glo, Promega) according to manufactures recommendations. Interpretation of curve parameters was performed according to the modified drug sensitivity scoring (DSSmod) function developed by Swords et al. […] Given in this way, the sDSSmod incorporated information on each drug’s potency, efficacy, effect range and therapeutic index, making it possible to prioritize compounds over multiple parameters using a single numerical metric. […] All calculations and scoring routines are implemented in MatLab and additional curve fitting and statistical analyses are performed in GraphPad prism.

[1] = drug sensitivity score, EACN42 normal esophageal cells, 72 h
[2] = EACN42 normal esophageal cells, 72 h
[3] = Homo sapiens, 72 h, EACN42 normal esophageal cells

## NC(=O)NO [Hydroxyurea]
[1]
  DSS: 0

## CC(=O)OCC(=O)[C@@]1(O)CC[C@H]2[C@@H]3CCC4=CC(=O)CC[C@]4(C)[C@H]3C(=O)C[C@@]21C [Cortisone acetate]
[1]
  DSS: 0

## CC1(C)O[C@@H]2C[C@H]3[C@@H]4CCC5=CC(=O)C=C[C@]5(C)[C@@]4(F)[C@@H](O)C[C@]3(C)[C@]2(C(=O)CO)O1 [Triamcinolone Acetonide]
[1]
  DSS: 0

## C=C1C[C@@H]2[C@H](CC[C@]3(C)C(=O)CC[C@@H]23)[C@@]2(C)C=CC(=O)C=C12 [Exemestane]
72 h
  DSS: 0

## Cl.N=C(N)NCCC[C@H](N)C(=O)O [L-Arginine HCl]
[2]
  EC50: 10 nM
[1]
  DSS: 0

## C[C@]12CCC(=O)C=C1CC[C@@H]1[C@@H]2[C@@H](O)C[C@@]2(C)[C@H]1CC[C@]2(O)C(=O)CO [Hydrocortisone]
[1]
  DSS: 0

## CC[C@]1(O)C[C@@H]2CN(CCc3c([nH]c4ccccc34)[C@@](C(=O)OC)(c3cc4c(cc3OC)N(C)[C@H]3[C@@](O)(C(=O)OC)[C@H](OC(C)=O)[C@]5(CC)C=CCN6CC[C@]43[C@@H]65)C2)C1 [Vinblastine]
[3]
  EC50: > 10000 nM
[1]
  DSS: 1.63

## CN(C)/N=N/c1[nH]cnc1C(N)=O [Dacarbazine]
[1]
  DSS: 0

## Maraviroc
[2]
  treatment response in words: low or no activity
[1]
  DSS: 0

## N#CC[C@H](C1CCCC1)n1cc(-c2ncnc3[nH]ccc23)cn1 [Ruxolitinib]
[1]
  DSS: 0

## CC(c1cc2ccccc2s1)N(O)C(N)=O (centres unmarked) [Zileuton]
[1]
  DSS: 0

## CO[C@H]1O[C@@H]2O[C@@]3(C)CC[C@H]4[C@H](C)CC[C@@H]([C@H]1C)[C@@]24OO3 [Artemether]
[1]
  DSS: 0

## O=P1(NCCCl)OCCCN1CCCl (centres unmarked) [Ifosfamide]
[1]
  DSS: 0

## CC(=O)O[C@@]12CO[C@@H]1C[C@H](O)[C@@]1(C)C(=O)[C@H](O)C3=C(C)[C@@H](O)C[C@@](O)([C@@H](OC(=O)c4ccccc4)[C@H]21)C3(C)C [10-DAB]
[2]
  EC50: 5480 nM
[1]
  DSS: 0.01

## COc1c2ccoc2cc2oc(=O)ccc12 [Bergapten]
[3]
  EC50: 50 nM
[1]
  DSS: 0

## CCc1ccc(CCOc2ccc(CC3SC(=O)NC3=O)cc2)nc1 (centres unmarked) [Pioglitazone]
[1]
  DSS: 0

## COc1ccc2c(c1OC)C(=O)O[C@@H]2[C@H]1c2c(cc3c(c2OC)OCO3)CCN1C [Noscapine HCl]
[1]
  DSS: 0

## COc1cc(Nc2c(C#N)cnc3cc(OCCCN4CCN(C)CC4)c(OC)cc23)c(Cl)cc1Cl [Bosutinib]
[1]
  DSS: 0

## Nc1nc(CC(=O)Nc2ccc(CCNC[C@H](O)c3ccccc3)cc2)cs1 [Mirabegron]
[3]
  EC50: 20 nM
[1]
  DSS: 0

## CC(C)(C#N)c1cc(Cn2cncn2)cc(C(C)(C)C#N)c1 [Anastrozole]
[3]
  EC50: 1590 nM
[1]
  DSS: 0

## NCCC(O)(P(=O)([O-])O)P(=O)([O-])O.[Na+].[Na+] [Pamidronate Disodium]
[1]
  DSS: 0

## Nc1ncn([C@H]2C[C@H](O)[C@@H](CO)O2)c(=O)n1 [Decitabine]
Homo sapiens, EACN42 normal esophageal cells, 72 h
  EC50: 170 nM
[1]
  DSS: 0

## C[C@]12CC[C@@H]3c4ccc(O)cc4CC[C@H]3[C@@H]1CC[C@@H]2O [Estradiol]
[1]
  DSS: 0

## C[C@]12CC[C@@H]3c4ccc(O)cc4C[C@@H](CCCCCCCCC[S+]([O-])CCCC(F)(F)C(F)(F)F)[C@H]3[C@@H]1CC[C@@H]2O (some centres unmarked) [Fulvestrant]
[1]
  DSS: 0

## CC#CCn1c(N2CCC[C@@H](N)C2)nc2c1c(=O)n(Cc1nc(C)c3ccccc3n1)c(=O)n2C [Linagliptin]
[3]
  EC50: 380 nM
[1]
  DSS: 0

## C[C@]12C=CC(=O)C=C1CC[C@@H]1[C@@H]2C(=O)C[C@@]2(C)[C@H]1CC[C@]2(O)C(=O)CO [Prednisone]
[1]
  DSS: 0

## C=C(c1ccc(C(=O)O)cc1)c1cc2c(cc1C)C(C)(C)CCC2(C)C [Bexarotene]
[3]
  EC50: 4290 nM
[1]
  DSS: 0.12

## CS(=O)(=O)OCCCCOS(C)(=O)=O [Busulfan]
[1]
  DSS: 0

## CC1COc2c(N3CCN(C)CC3)c(F)cc3c(=O)c(C(=O)O)cn1c23 (centres unmarked) [Ofloxacin]
[1]
  DSS: 0

## Cl.Cn1c(CCCC(=O)O)nc2cc(N(CCCl)CCCl)ccc21 [Bendamustine HCL]
[1]
  DSS: 0

## CC(=O)OCC(=O)[C@@]1(O)[C@H](C)C[C@H]2[C@@H]3CCC4=CC(=O)C=C[C@]4(C)[C@@]3(F)[C@@H](O)C[C@@]21C [Dexamethasone acetate]
[1]
  DSS: 0

## CC#C[C@]1(O)CC[C@H]2[C@@H]3CCC4=CC(=O)CCC4=C3[C@@H](c3ccc(N(C)C)cc3)C[C@@]21C [Mifepristone]
[1]
  DSS: 0

## CCCC(=O)[O-].[Na+] [Sodium butyrate]
[1]
  DSS: 0

## N#Cc1ccc(C(c2ccc(C#N)cc2)n2cncn2)cc1 [Letrozole]
[3]
  EC50: 60 nM
[1]
  DSS: 0

## Cc1ccc(NC(=O)c2ccc(CN3CCN(C)CC3)cc2)cc1Nc1nccc(-c2cccnc2)n1 [Imatinib]
[1]
  DSS: 0

## CC(=O)O[C@]1(C(C)=O)CC[C@H]2[C@@H]3C=C(C)C4=CC(=O)CC[C@]4(C)[C@H]3CC[C@@]21C [Megestrol Acetate]
[1]
  DSS: 0

## O=c1[nH]c(=O)n(C2CCCO2)cc1F (centres unmarked) [Ftorafur]
[1]
  DSS: 0

## COc1cc2ncnc(Nc3ccc(F)c(Cl)c3)c2cc1OCCCN1CCOCC1 [Gefitinib]
[1]
  DSS: 0

## C#Cc1cccc(Nc2ncnc3cc(OCCOC)c(OCCOC)cc23)c1 [Erlotinib HCl]
[1]
  DSS: 0

## O=C(O)c1nn(Cc2ccc(Cl)cc2Cl)c2ccccc12 [Lonidamine]
[1]
  DSS: 0

## C[C@@H]1CCN(C(=O)CC#N)C[C@@H]1N(C)c1ncnc2[nH]ccc12 [Tofacitinib citrate]
[1]
  DSS: 0

## CC(C)Cn1cnc2c(N)nc3ccccc3c21 [Imiquimod]
[3]
  EC50: 2000 nM
[1]
  DSS: 0

## O=C1CN2Cc3c(ccc(Cl)c3Cl)N=C2N1 [Anagrelide HCl]
[3]
  EC50: 40 nM
[1]
  DSS: 0

## CC1=C(/C=C/C(C)=C/C=C/C(C)=C/C(=O)O)C(C)(C)CCC1 [Tretinoin]
[1]
  DSS: 0

## Cl.Nc1ncnc2nc[nH]c12 [Adenine hydrochloride]
[2]
  EC50: 10 nM
[1]
  DSS: 0

## CC(=O)OCC(CCn1cnc2cnc(N)nc21)COC(C)=O [Famciclovir]
[3]
  EC50: 1120 nM
[1]
  DSS: 0

## Nc1ncnc2nc[nH]c12.Nc1ncnc2nc[nH]c12.O=S(=O)(O)O [Adenine sulfate]
[2]
  EC50: 250 nM
[1]
  DSS: 0

## Nc1cccc2c1CN(C1CCC(=O)NC1=O)C2=O (centres unmarked) [Lenalidomide]
[1]
  DSS: 0

## C=CC[C@@H]1/C=C(\C)C[C@H](C)C[C@H](OC)[C@H]2O[C@@](O)(C(=O)C(=O)N3CCCC[C@H]3C(=O)O[C@H](/C(C)=C/[C@@H]3CC[C@@H](O)[C@H](OC)C3)[C@H](C)[C@@H](O)CC1=O)[C@H](C)C[C@@H]2OC [Tacrolimus]
[1]
  DSS: 0

## CC[C@@H]1/C=C(\C)C[C@H](C)C[C@H](OC)[C@H]2O[C@@](O)(C(=O)C(=O)N3CCCC[C@H]3C(=O)O[C@H](/C(C)=C/[C@@H]3CC[C@H](Cl)[C@H](OC)C3)[C@H](C)[C@@H](O)CC1=O)[C@H](C)C[C@@H]2OC [Pimecrolimus]
[3]
  EC50: 5300 nM
[1]
  DSS: 1.11

## CN(N=O)C(=O)N[C@H]1C(O)O[C@H](CO)[C@@H](O)[C@@H]1O (mixture of isomers) [Streptozotocin]
[1]
  DSS: 0

## CC(O)(CS(=O)(=O)c1ccc(F)cc1)C(=O)Nc1ccc(C#N)c(C(F)(F)F)c1 (centres unmarked) [Bicalutamide]
[1]
  DSS: 0

## N#CC1(c2ccc(NC(=O)c3cccnc3NCc3ccncc3)cc2)CCCC1 [Apatinib]
[3]
  EC50: 50 nM
[1]
  DSS: 0

## C=CCN1CC[C@]23c4c5ccc(O)c4O[C@H]2C(=O)CC[C@@]3(O)[C@H]1C5 [Naloxone HCl]
[1]
  DSS: 0

## CCN(CC)CCOc1ccc(C(=C(Cl)c2ccccc2)c2ccccc2)cc1 [Clomifene citrate]
[1]
  DSS: 0

## O=C1CCC(N2C(=O)c3ccccc3C2=O)C(=O)N1 (centres unmarked) [Thalidomide]
[1]
  DSS: 0

## CC1=NN(c2ccc(C)c(C)c2)C(=O)/C1=N\Nc1cccc(-c2cccc(C(=O)O)c2)c1O [Eltrombopag]
[3]
  EC50: 4660 nM
[1]
  DSS: 0.32

## COC(=O)C1=C(C#N)NC(C)=C(C(=O)OC(C)C)C1c1cccc([N+](=O)[O-])c1 (centres unmarked) [Nilvadipine]
[3]
  EC50: 10 nM
[1]
  DSS: 0

## O=P1(N(CCCl)CCCl)NCCCO1 (centres unmarked) [Cyclophosphamide monohydrate]
  DSS: 0

## CC(=O)Oc1ccccc1C(=O)O [Aspirin]
[2]
  treatment response in words: low or no activity
[1]
  DSS: 0

## CC(C)C[C@H](NC(=O)[C@@H](O)[C@H](N)Cc1ccccc1)C(=O)O [Ubenimex]
[1]
  DSS: 0

## Nc1nc2c(c(=O)[nH]1)N(C=O)C(CNc1ccc(C(=O)N[C@@H](CCC(=O)O)C(=O)O)cc1)CN2 (some centres unmarked) [Leucovorin Calcium]
[3]
  EC50: 90 nM
[1]
  DSS: 0.04

## Cc1ccc(Nc2nccc(N(C)c3ccc4c(C)n(C)nc4c3)n2)cc1S(N)(=O)=O [Pazopanib]
[1]
  DSS: 0

## CC/C(=C(\c1ccccc1)c1ccc(OCCN(C)C)cc1)c1ccccc1 [Tamoxifen Citrate]
[1]
  DSS: 0

## Cc1cccc(N(C)C(=S)Oc2ccc3ccccc3c2)c1 [Tolnaftate]
[1]
  DSS: 0

## C[C@]12CC[C@H](O)CC1=CC[C@@H]1[C@@H]2CC[C@]2(C)C(c3cccnc3)=CC[C@@H]12 [Abiraterone]
[1]
  DSS: 0

## Cn1nnc2c(C(N)=O)ncn2c1=O [Methazolastone]
[1]
  DSS: 0
